Measured values reported in patent publication US6921530B1, “Low dose IL-2 for potentiation of immunity” (Cornell Research Foundation, Inc., priority 1999, dated 2005).

Assays:
[1] = system: circulating lymphocyte subsets (CD4+ T cells, CD8+ T cells, NK cells); assay: Circulating lymphocyte subsets by flow cytometry in HIV-positive subjects on PART + IL-2 and after cessation of PART; assay type: in vivo, human
From the text: Conditions for patient exclusion included a) uncontrolled infection; b) concurrent therapy with glucocorticoids or other immunosuppressive agents; or c) concurrent immunomodulating agents, eg. IFN-a, granulocyte colony stimulating factor (G-CSF), granulocyte-monocyte colony stimulating factor (GM-CSF).
Prior to the discontinuation of PART, at least 3 months of daily, low-dose (250,000 U/m^2) subcutaneous IL-2 (R-Met-HU IL2-Ala-125, Amgen, Thousand Oaks, Calif.) immuno-stimulatory therapy were administered as described in Jacobsen, E L et al., Proc Natl Acad Sci USA 93:10405-10 (1996). In addition, to ensure the safest possible immune parameters for the discontinuation of PART, IL-2 immuno-stimulation was continued after the anti-viral drugs were withdrawn.
Subsequent to the discontinuation of PART, plasma HIV was monitored twice weekly. Plasma HIV RNA concentrations were determined on EDTA anti-coagulated plasma samples, which were frozen (−70° C.) within 3 hours of phlebotomy. Samples were assayed by Bayer Diagnostics, Emeryville, Calif. Lymphocyte subsets were determined on fresh blood samples by flow cytometry using subset-specific monoclonal antibodies and a FACSCaliber from Becton-Dickinson, San, Jose, Calif. by standard procedures according to the manufacturer.
For 3 months prior to the discontinuation of PART, the concentration of circulating lymphocyte subsets were monitored monthly (see Table 1). Subsequent to the discontinuation of PART, the lymphocytes were monitored weekly. Whole blood (1 ml) was activated in vitro with HIV recombinant p55 antigen (Chiron Corp., Emeryville, Calif., 1 μg/ml) for 6 hours at 37 C. During the last 4 hours, Brefeldin A (Sigma, Inc., St. Louis, Mo., […]) was added to retard cytokine secretion. At the end of the incubation, EDTA (Sigma, 100 mM) was added, the blood was vortexed vigorously for 10 seconds, and the erythrocytes were lysed using 10 ml FACSLysing Reagent. After a 10 minute incubation the leukocytes were separated by centrifugation (500×g, 10 min), then resuspended and frozen (−70 C) in 2 ml R.P.M.I. 1640 tissue cuture medium containing 10% fetal calf serum and 10% dimethyl sulfoxide. Prior to labeling with monoclonal antibodies, the cells were thawed, centrifuged (500×g, 10 min) and permeabilized using FACSPerm. After washing with 3 ml phosphate buffered saline (PBS), the cells were incubated with fluorochrome-conjugated monoclonal antibodies for 30 minutes at room temperature in the dark. The cells were then washed 1× with PBS, and then fixed with 0.5% paraformaldehyde and analyzed by flow cytometry.

HBV = conditions: cited from earlier work

With Interleukin-2 [IL-2] the “CD8+ T cell concentration as % of baseline levels” value ([1]; after 2 weeks of viremia) was > 200 % of baseline, the “mean peak increase of CD8+ T cells, group with more rapid viral decline” value ([1]; after cessation of PART) was 350 % of baseline and the “mean peak increase of CD8+ T cells, group with slower viral decline” value ([1]; after cessation of PART) was 150 % of baseline. For the same substance, the “change of circulating NK cells” value ([1]; entire interval after discontinuation of PART) was “did not change significantly”, the “decrease of circulating CD4+ T cells compared with baseline” value ([1]; just after the peak of viremia, after discontinuation of PART) was 24% and the “fold increase of CD8+ T cells from baseline” value ([1]; subject D3) was 8 fold. For the same substance, the “CD8+ T cells at peak” value ([1]; subject D3, coincident with drop in plasma HIV RNA) was 4,669 cells/mm3, the “subjects with 50% reduction in HBV viral titer” value (HBV; 9×10^6 CU s.c. weekly for three weeks, then 1.8×10^6 CU twice a week for three months) was 4/7 and the subjects with response (HBV; doses up to 3.6×10^6 CU/day SC qd for eight weeks) was 5/30. For the same substance, the “subsequent decrease in ALT levels” value (HBV; following the transient increase) was 30% and the “transient increase in ALT levels” value (HBV; in vivo) was 30%.
